Reference: patent publication US10703764B2, “Benzopiperazine compositions as BET bromodomain inhibitors” (FORMA Therapeutics, Inc., priority 2013, dated 2020)
Read-outs that look alike come from different tables or passages of the source.

What was measured:
BRD4 BD1 = target: T1, BRD4 BD1 (Homo sapiens, UniProt O60885); assay: AlphaScreen binding assay, BRD4 Bromodomain 1
T1 construct: made in house
Outline: (§1)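 Compound dilution series were mixed with His-tagged BRD4 bromodomain and biotinylated tetra-acetylated H4 (1-21) peptide at pH 7.3 (BD1 and peptide at 50 nM, BD2 and peptide at 100 nM). Donor and acceptor beads were then added, and plates were equilibrated at least 1 h before reading. IC50 values were fitted with a four-parameter logistic model.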

BRD4 BD2 = target: T2, BRD4 BD2 (Homo sapiens, UniProt O60885); assay: AlphaScreen binding assay, BRD4 Bromodomain 2
T2 construct: made in house
Outline: as §1

MV4-11 cells = assay: Oncology cell growth assay (3-day proliferation, CellTiter-Glo); type: cell-based; conditions: Homo sapiens, AML cell line MV4-11, 72 hours, compounds grouped by IC50 range, read-out: MV4-11 IC50 (inhibition of proliferation, gIC50)
Outline: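 Compounds were serially diluted 3-fold in DMSO, giving final well concentrations from 10 down to 0.0045 μM. MV4-11 cells were then seeded at 3000 cells/well in RPMI 1640 with 10% FBS and incubated 72 hours. CellTiter-Glo signal was measured and gIC50 obtained by four-parameter logistic regression.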

Row | SMILES | IC50 (BRD4 BD1) | IC50 (BRD4 BD2) | IC50 (MV4-11 cells; MV4-11, 72 h) | IC50 (MV4-11 cells)
1 | CC(=O)N1c2ccc(-c3ccc(S(=O)(=O)N(C)C)cc3)cc2N(C(=O)OC2CCOCC2)C[C@@H]1C [Example I-1264] | 100 to 1000 nM | 50 to 500 nM | 100 to 500 nM | –
2 | CC(=O)N1c2ccc(-c3ccc(S(=O)(=O)NC(C)(C)C)cc3)cc2N(C(=O)OC2CCCCC2)C[C@@H]1C [Example I-1265] | 100 to 1000 nM | 50 to 500 nM | 100 to 500 nM | –
3 | CC(=O)N1c2ccc(-c3ccc(S(=O)(=O)NC(C)(C)C)cc3)cc2N(C(=O)OC2CCOCC2)C[C@@H]1C [Example I-1266] | 100 to 1000 nM | 50 to 500 nM | 100 to 500 nM | –
4 | CC(=O)N1c2ccc(-c3ccc(N4CCCC4=O)cc3)cc2N(C(=O)OC2CCCCC2)C[C@@H]1C [Example I-1267] | 100 to 1000 nM | 50 to 500 nM | 100 to 500 nM | –
5 | CC(=O)N1c2ccc(-c3ccc(N4CCCC4=O)cc3)cc2N(C(=O)OC2CCOCC2)C[C@@H]1C [Example I-1268] | 100 to 1000 nM | 50 to 500 nM | 100 to 500 nM | –
6 | CCS(=O)(=O)Nc1ccc(-c2ccc3c(c2)N(C(=O)OC2CCCCC2)C[C@H](C)N3C(C)=O)cc1 [Example I-1269] | 100 to 1000 nM | 50 to 500 nM | < 100 nM | –
7 | CCS(=O)(=O)Nc1ccc(-c2ccc3c(c2)N(C(=O)OC2CCOCC2)C[C@H](C)N3C(C)=O)cc1 [Example I-1270] | 100 to 1000 nM | 50 to 500 nM | 100 to 500 nM | –
8 | COc1ccc(-c2ccc3c(c2)N(C(=O)OC2CCCCC2)C[C@H](C)N3C(C)=O)cc1NS(C)(=O)=O [Example I-1271] | 100 to 1000 nM | 50 to 500 nM | < 100 nM | –
9 | COc1ccc(-c2ccc3c(c2)N(C(=O)OC2CCOCC2)C[C@H](C)N3C(C)=O)cc1NS(C)(=O)=O [Example I-1272] | 100 to 1000 nM | 50 to 500 nM | 100 to 500 nM | –
10 | CC(=O)N1c2ccc(-c3cccc(NS(=O)(=O)N(C)C)c3)cc2N(C(=O)OC2CCCCC2)C[C@@H]1C [Example I-1273] | 100 to 1000 nM | 50 to 500 nM | 100 to 500 nM | –
11 | CC(=O)N1c2ccc(-c3cccc(NS(=O)(=O)N(C)C)c3)cc2N(C(=O)OC2CCOCC2)C[C@@H]1C [Example I-1274] | 100 to 1000 nM | 50 to 500 nM | 100 to 500 nM | –
12 | CC(=O)N1c2ccc(-c3cnn(C(C)(C)CO)c3)cc2N(C(=O)OC(C)C)C[C@@H]1C [Example I-1275] | 100 to 1000 nM | < 50 nM | 100 to 500 nM | –
13 | CC(=O)N1c2ccc(-c3cnn(CCS(C)(=O)=O)c3)cc2N(C(=O)Oc2cccnc2)C[C@@H]1C [Example I-1279] | 100 to 1000 nM | 50 to 500 nM | 100 to 500 nM | –
14 | CC(=O)N1c2ccc(-c3cnn(CCO)c3)cc2N(C(=O)Oc2cccnc2)C[C@@H]1C [Example I-1281] | 100 to 1000 nM | 50 to 500 nM | 100 to 500 nM | –
15 | CC(=O)N1c2ccc(-c3cnn(C(C)(C)CO)c3)cc2N(C(=O)Oc2cccnc2)C[C@@H]1C [Example I-1284] | 100 to 1000 nM | 50 to 500 nM | 100 to 500 nM | –
16 | CC(=O)N1c2ccc(-c3ccc(N4CCCS4(=O)=O)cc3)cc2N(C(=O)Oc2cccnc2)C[C@@H]1C [Example I-1286] | 100 to 1000 nM | 50 to 500 nM | 100 to 500 nM | –
17 | CC(=O)N1c2ccc(-c3ccc(N(C)S(C)(=O)=O)cc3)cc2N(C(=O)Oc2cccnc2)C[C@@H]1C [Example I-1292] | 100 to 1000 nM | 50 to 500 nM | 100 to 500 nM | –
18 | CC(=O)N1c2ccc(-c3cnn(C4CNC4)c3)cc2N(C(=O)Oc2cccnc2)C[C@@H]1C [Example I-1294] | 100 to 1000 nM | 50 to 500 nM | – | > 500 nM
19 | CC(=O)N1c2ccc(-c3ccc(S(N)(=O)=O)c(F)c3)cc2N(C(=O)C2CC2)C[C@@H]1C [Example I-1297] | 1000 to 10000 nM | 50 to 500 nM | > 500 nM | –
20 | CC(=O)N1c2ccc(-c3ccc(S(N)(=O)=O)c(F)c3)cc2N(C(=O)OC(C)C)C[C@@H]1C [Example I-1298] | 1000 to 10000 nM | 50 to 500 nM | > 500 nM | –

Row | SMILES | IC50 (BRD4 BD1) | IC50 (BRD4 BD2) | IC50 (MV4-11 cells; MV4-11, 72 h) | IC50 (MV4-11 cells)
21 | CC(=O)N1c2ccc(-c3ccc(S(=O)(=O)N(C)C)c(C)c3)cc2N(C(=O)OC(C)C)C[C@@H]1C [Example I-1299] | 100 to 1000 nM | 50 to 500 nM | 100 to 500 nM | –
22 | CC(=O)N1c2ccc(-c3ccc(S(=O)(=O)N(C)C)c(C)c3)cc2N(C(=O)C2CC2)C[C@@H]1C [Example I-1300] | 100 to 1000 nM | 50 to 500 nM | > 500 nM | –
23 | CC(=O)N1c2ccc(-c3cnn(C4CCOCC4)c3)cc2N(C(=O)OC2CCCCC2)C[C@@H]1C [Example I-1301] | < 100 nM | < 50 nM | < 100 nM | –
24 | CC(=O)N1c2ccc(-c3cnn(C4CCOCC4)c3)cc2N(C(=O)C2CC2)C[C@@H]1C [Example I-1302] | 100 to 1000 nM | < 50 nM | 100 to 500 nM | –
25 | CC(=O)N1c2ccc(-c3cnn(C4CCNCC4)c3)cc2N(C(=O)OC2CCCCC2)C[C@@H]1C [Example I-1303] | 100 to 1000 nM | 50 to 500 nM | < 100 nM | –
26 | CC(=O)N1c2ccc(-c3cnn(C4CNC4)c3)cc2N(C(=O)OC2CCCCC2)C[C@@H]1C [Example I-1304] | < 100 nM | < 50 nM | < 100 nM | –
27 | CC(=O)N1c2ccc(-c3cnn(C4CS(=O)(=O)C4)c3)cc2N(C(=O)C2CC2)C[C@@H]1C [Example I-1305] | 1000 to 10000 nM | < 50 nM | > 500 nM | –
28 | CC(=O)N1c2ccc(-c3cnn(C4CS(=O)(=O)C4)c3)cc2N(C(=O)OC(C)C)C[C@@H]1C [Example I-1306] | 100 to 1000 nM | 50 to 500 nM | > 500 nM | –
29 | CC(=O)N1c2ccc(-c3cnn(C4CS(=O)(=O)C4)c3)cc2N(C(=O)OC2CCCC2)C[C@@H]1C [Example I-1307] | 100 to 1000 nM | < 50 nM | 100 to 500 nM | –
30 | CC(=O)N1c2ccc(-c3cnn(C4CS(=O)(=O)C4)c3)cc2N(C(=O)OC2CCCCC2)C[C@@H]1C [Example I-1308] | 100 to 1000 nM | < 50 nM | 100 to 500 nM | –
31 | CC(=O)N1c2ccc(-c3cnn(C4CCCS(=O)(=O)C4)c3)cc2N(C(=O)C2CC2)C[C@@H]1C (stereo partly drawn) [Example I-1310] | 100 to 1000 nM | 50 to 500 nM | > 500 nM | –
32 | CC(=O)N1c2ccc(-c3cnn(C4CCCS(=O)(=O)C4)c3)cc2N(C(=O)OC(C)C)C[C@@H]1C (stereo partly drawn) [Example I-1311] | 100 to 1000 nM | 50 to 500 nM | 100 to 500 nM | –
33 | CC(=O)N1c2ccc(-c3cnn(C4CCCS(=O)(=O)C4)c3)cc2N(C(=O)OC2CCCCC2)C[C@@H]1C (stereo partly drawn) [Example I-1312] | 100 to 1000 nM | < 50 nM | 100 to 500 nM | –
34 | CC(=O)N1c2ccc(-c3ccc(NS(C)(=O)=O)cc3)cc2N(C(=O)Oc2ccccn2)C[C@@H]1C [Example I-1316] | 100 to 1000 nM | 50 to 500 nM | 100 to 500 nM | –
35 | CC(=O)N1c2ccc(-c3cnn(C4CC4)c3)cc2N(C(=O)Oc2ccccn2)C[C@@H]1C [Example I-1322] | 100 to 1000 nM | < 50 nM | < 100 nM | –
36 | COC(=O)N1c2ccc(-c3cnn(C4CC4)c3)cc2N(C(=O)Oc2ccccn2)C[C@@H]1C [Example I-1323] | 100 to 1000 nM | < 50 nM | 100 to 500 nM | –
37 | CC(=O)N1c2ccc(-c3ccc(N4CCCS4(=O)=O)cc3)cc2N(C(=O)Oc2ccccn2)C[C@@H]1C [Example I-1324] | 100 to 1000 nM | < 50 nM | 100 to 500 nM | –
38 | CC(=O)N1c2ccc(-c3cnn(CCC#N)c3)cc2N(C(=O)Oc2ccccn2)C[C@@H]1C [Example I-1326] | 100 to 1000 nM | 50 to 500 nM | 100 to 500 nM | –
39 | CC(=O)N1c2ccc(-c3ccc4c(c3)CCN4S(C)(=O)=O)cc2N(C(=O)Oc2ccccn2)C[C@@H]1C [Example I-1328] | 100 to 1000 nM | 50 to 500 nM | 100 to 500 nM | –
